The text below walks through data of a polymer gas permeability compilation.

`*/N=C1/c2cc(C(c3ccc4c(c3)C(=O)n3c-4nc4c(Oc5ccc(*)c(*)c5)cccc43)(C(F)(F)F)C(F)(F)F)ccc2C(=O)N1*` (repeat unit) gave a CH4 permeability of 0.54 Barrer, a CO2 permeability of 27.6 Barrer, an N2 permeability of 1.22 Barrer and an O2 permeability of 7.9 Barrer.
`*C(C)=C(*)CCCCCC` (repeat unit) came in with a CH4 permeability of 64 Barrer, a CO2 permeability of 230 Barrer, an H2 permeability of 140 Barrer and an N2 permeability of 23 Barrer. The compound further showed an O2 permeability of 60 Barrer.
For `*C(C)=C(*)CCCCCCC` (repeat unit) the same measures were 83.5 Barrer, 290 Barrer, 145 Barrer, 29 Barrer and 72.5 Barrer.
Compound `*C(C)=C(*)c1ccccc1` (repeat unit) showed a CH4 permeability of 5.2 Barrer, a CO2 permeability of 174 Barrer, an H2 permeability of 199 Barrer and an N2 permeability of 12.2 Barrer. For the same compound, the O2 permeability worked out at 36.8 Barrer.
For `*C(F)(F)C1(F)OC(F)(F)C(F)(F)C1(F)C(*)(F)F` (repeat unit) the same measures were 2 Barrer, 35 Barrer, 59 Barrer, 5 Barrer and 16 Barrer.
The compound `*C/C(C)=C(\C)C*` (repeat unit) registered a CH4 permeability of 0.786 Barrer, a CO2 permeability of 7.47 Barrer, an H2 permeability of 17 Barrer and an N2 permeability of 0.472 Barrer. The compound further gave an O2 permeability of 2.1 Barrer.
Consider `*C/C=C(/C)C*` (repeat unit), for which the CH4 permeability came out at 29.6 Barrer, the CO2 permeability worked out at 153 Barrer, the H2 permeability stood at 49 Barrer and the N2 permeability worked out at 8.75 Barrer. Moreover, the O2 permeability came to 23.3 Barrer.
The compound `*C/C=C(/Cl)C*` (repeat unit) returned a CH4 permeability of 3.28 Barrer, a CO2 permeability of 25.6 Barrer, an H2 permeability of 20.6 Barrer and an N2 permeability of 2.07 Barrer. This compound also returned an O2 permeability of 4 Barrer.
As for `*C1C(*)C2CC1C1CC([Si](C)(C)C)C21` (repeat unit), the CH4 permeability is 1010 Barrer, the CO2 permeability came out at 5300 Barrer, the H2 permeability stood at 2060 Barrer and the N2 permeability is 390 Barrer. Also, the O2 permeability was 990 Barrer.
Compound `*C1C(*)C2CC1C1C[CH]([Ge]([CH3])([CH3])[CH3])C21` (repeat unit) returned a CH4 permeability of 620 Barrer.
With `*C=C(*)C(C)(C)C` (repeat unit), the CH4 permeability was 85 Barrer, the CO2 permeability was 560 Barrer, the N2 permeability was 43 Barrer and the O2 permeability was 130 Barrer.
`*C=CCCC*` (repeat unit) came in with a CH4 permeability of 430 Barrer, a CO2 permeability of 2000 Barrer, an H2 permeability of 415 Barrer and an N2 permeability of 100 Barrer. The O2 permeability came to 310 Barrer.
For the compound `*CC(*)(C)C(=O)OC` (repeat unit), the CH4 permeability was found to be 0.00565 Barrer, the CO2 permeability amounted to 0.35 Barrer, the H2 permeability worked out at 4.1 Barrer and the N2 permeability came out at 0.0113 Barrer. The O2 permeability was found to be 0.0885 Barrer.
In turn, `*CC(*)(C)C(=O)OC(C)(C)C` (repeat unit) had a CH4 permeability of 0.719 Barrer, a CO2 permeability of 15.1 Barrer, an H2 permeability of 62.2 Barrer and an N2 permeability of 0.768 Barrer. Also, the O2 permeability came to 4.53 Barrer.
On to `*CC(*)(C)C(=O)OCCOCCOCC` (repeat unit), for which the CH4 permeability came out at 11.4 Barrer, the CO2 permeability was determined as 133 Barrer, the N2 permeability worked out at 3.6 Barrer and the O2 permeability stood at 11.4 Barrer.
As to `*CC(*)(C)C(=O)OCCOCCOCCOCC` (repeat unit), the CH4 permeability was 4.8 Barrer, the CO2 permeability was determined as 74.4 Barrer, the N2 permeability is 2 Barrer and the O2 permeability amounted to 3.9 Barrer.
In the case of `*CC(*)C(=O)OCC(F)(F)C(F)(F)C(F)(F)C(F)(F)C(F)(F)C(F)(F)C(F)(F)F` (repeat unit), the CH4 permeability amounted to 57 Barrer, the CO2 permeability worked out at 520 Barrer, the H2 permeability stood at 300 Barrer and the N2 permeability came out at 54 Barrer. The compound further gave an O2 permeability of 135 Barrer.
In turn, `*CC(*)C(=O)OCCCCCCCCCCCCCC` (repeat unit) displayed a CH4 permeability of 65.1 Barrer, a CO2 permeability of 297 Barrer, an H2 permeability of 96.2 Barrer and an N2 permeability of 22.1 Barrer. This compound also yielded an O2 permeability of 57.1 Barrer.
Consider `*CC(*)Cl` (repeat unit), for which the CH4 permeability was 0.0263 Barrer, the CO2 permeability was 0.16 Barrer, the H2 permeability came out at 1.79 Barrer and the N2 permeability amounted to 0.0109 Barrer. Also, the O2 permeability came to 0.0453 Barrer.
For `*CC(*)OC(=O)c1cccc(C)c1` (repeat unit), the CH4 permeability stood at 0.118 Barrer, the CO2 permeability was determined as 2.13 Barrer, the N2 permeability was found to be 0.0875 Barrer and the O2 permeability came to 0.496 Barrer.
As to `*CC(*)OC(=O)c1ccccc1C` (repeat unit), the CH4 permeability turned out to be 0.115 Barrer, the CO2 permeability came to 2.23 Barrer, the N2 permeability came to 0.0859 Barrer and the O2 permeability was determined as 0.47 Barrer.
`*CC(*)c1ccc(Br)cc1` (repeat unit) yielded a CH4 permeability of 0.48 Barrer, a CO2 permeability of 8.5 Barrer, an N2 permeability of 0.32 Barrer and an O2 permeability of 1.9 Barrer.
For `*CC(*)c1ccc(C(C)(C)C)cc1` (repeat unit) the same measures were 16.7 Barrer, 140 Barrer, 8.4 Barrer and 35.5 Barrer.
`*CC(*)c1ccc(C[Si](C)(C)C)cc1` (repeat unit): the CH4 permeability turned out to be 7.8 Barrer, the CO2 permeability came to 79.8 Barrer, the H2 permeability turned out to be 54 Barrer and the O2 permeability stood at 19.9 Barrer.
As for `*CC(*)c1ccc(F)cc1` (repeat unit), the CH4 permeability is 1.06 Barrer, the CO2 permeability was 17.2 Barrer, the N2 permeability stood at 0.83 Barrer and the O2 permeability was 4.4 Barrer.
`*CC(*)c1ccc(S(=O)(=O)[O-])cc1` (repeat unit) returned a CH4 permeability of 0.119 Barrer, a CO2 permeability of 4.15 Barrer, an H2 permeability of 10.8 Barrer and an N2 permeability of 0.101 Barrer. For the same compound, the O2 permeability turned out to be 0.845 Barrer.
In turn, `*CC(*)c1ccc([Si](C)(C)CCCC(F)(F)F)cc1` (repeat unit) returned a CH4 permeability of 22 Barrer, a CO2 permeability of 284 Barrer, an H2 permeability of 109 Barrer and an N2 permeability of 11.8 Barrer. This compound also had an O2 permeability of 38.1 Barrer.
In turn, `*CC(*)c1ccccc1` (repeat unit) came in with a CH4 permeability of 0.785 Barrer, a CO2 permeability of 12.4 Barrer, an H2 permeability of 26.1 Barrer and an N2 permeability of 0.53 Barrer. Besides, the O2 permeability was 2.9 Barrer.
Take `*CC(*)c1ccncc1` (repeat unit): the CH4 permeability was found to be 0.14 Barrer, the CO2 permeability was determined as 3.31 Barrer, the H2 permeability was 12.6 Barrer and the N2 permeability is 0.13 Barrer. This compound yielded an O2 permeability of 0.84 Barrer.
